Measurements as given in patent publication US6440445B1, “Methods and compounds for treatment of abnormal uterine bleeding” (Brigham & Women's Hospital, priority 1996, dated 2002).

Key:
myometrial cells [1] = assay: Pirfenidone: cell proliferation (tritiated thymidine incorporation, cell number), myometrial cells; type: cell-based; details: p<0.01
Source text: (§1) We have also discovered that pirfenidone is a response-blocking compound. Pirfenidone is an antifibrotic agent which is being investigated for use in patients with pulmonary fibrosis. […] Possible cytotoxic effects were examined using lactate dehydrogenase assays and trypan blue exclusion.

leiomyoma cells [2] = assay: Pirfenidone: cell proliferation (tritiated thymidine incorporation, cell number), leiomyoma cells; type: cell-based; details: p<0.01
Source text: as §1

myometrial cells [3] = assay: Cytotoxicity (lactate dehydrogenase assay, trypan blue exclusion), myometrial cells; type: cell-based
Source text: as §1
(§2) Additionally, the effect of pirfenidone on cell proliferation and the percentage of dead cells was examined, and the results from the two experiments are shown in FIG. 12.

leiomyoma cells [4] = assay: Collagen type I and III messenger RNA expression by RNA blotting, leiomyoma cells; type: cell-based
leiomyoma cells [5] = assay: Cytotoxicity (lactate dehydrogenase assay, trypan blue exclusion), leiomyoma cells; type: cell-based
Source text: as §1, §2

myometrial cells [6] = assay: Collagen type I and III messenger RNA expression by RNA blotting, myometrial cells; type: cell-based
human fibroblasts = details: in response to bFGF, TGFB and PDGF; cited from earlier work
[7] = test system: vascular smooth muscle cells, T cells, and fibroblasts; details: wide variety of cells; cited from earlier work
[8] = test system: FGF / specific cell surface receptors; details: cited from earlier work
uterine stromal cells = assay: Proliferation of uterine stromal cells (cell counts); type: cell-based; details: only in the presence of progesterone (10 ng/ml bFGF + 100 nm MPA); 7 days
Procedure: Stromal cells were used at the first passage and were plated into 100 mm dishes (200,000/dish) in serum-containing medium. The following day, cells were rinsed and transferred to serum-free medium containing insulin, transferrin and selenium. Cells remained in this medium for 48 hr to induce quiescence and then received fresh serum-free medium with one of the following treatments: ITS (medium containing only insulin, transferin, and selenium), ITS+10% fetal bovine serum, MPA (ITS+100 nm medroxy progesterone acetate), E2 (ITS+10 nm estradiol 17-beta), bFGF (ITS+10 ng/ml bFGF), bFGF/E2/MPA (ITS+100 nm MPA+10 nm estradiol+10 ng/ml bFGF), bFGF+2% fetal bovine serum (ITS+10 ng/ml bFGF+2% fetal bovine serum), bFGF+MPA (ITS+10 ng/ml bFGF+100 nm MPA) and bFGF+E2 (TS+10 ng/ml bFGF+10 nm estradiol). Cells were treated for a total of 7 days with cell counts performed on days 2, 4 and 7.

[9] = test system: cultured human myometrial smooth muscle cells; assay: DNA synthesis (tritiated thymidine incorporation) in cultured myometrial smooth muscle cells; type: cell-based; details: for basal and serum-stimulated DNA synthesis (tritiated thymidine incorporation): interferon 10, 100, 1000 U/ml, 24 hr, serum-free 0.1% BSA or 10% fetal bovine serum
Procedure: (§3) Myometrial and leiomyoma cells from the same patients were used at first passage for proliferation assays. 10,000 cells were plated per well in 96-well plates in medium+10 % serum. Cells were cultured for three days and then placed in serum-free medium for 48 hr to attain quiescence. Interferon-α was tested at the following doses in 10% serum-containing medium; 0, 10, 100 and 1000 U/ml for a period of 24 hr. Tritiated thymidine (luCi/ml) was added to the culture wells for the final 4-6 hr of incubation, the medium removed, cells harvested and counted for thymidine incorporation.
(§4) Effects on basal DNA synthesis were tested using cells cultured in serum-free medium containing only 0.1% BSA while effects on serum-stimulated cells were assessed using cells cultured in medium with 10% fetal bovine serum.
(§5) FIGS. 6c and 6d show the effects of interferon-α on bFGF induced increases in DNA synthesis by uterine myometrial and leiomyoma cells, respectively. Cells were treated with either medium+10% serum of various concentrations of bFGF (0.5 ng/ml, 1.0 ng/ml, 5.0 ng/m. and 10 ng/ml) to compare mitogenic effects. Cells cultured in serum were also treated with interferon-α at 10, 100 and 1000 U/ml, while cells cultured in the various concentrations of bFGF were treated with 100 U/ml of interferon α.

smooth muscle cell = details: also certain tumor cells; cited from earlier work
[10] = test system: cultured human leiomyoma smooth muscle cells; assay: DNA synthesis (tritiated thymidine incorporation) in cultured leiomyoma smooth muscle cells; type: cell-based; details: for basal and serum-stimulated DNA synthesis (tritiated thymidine incorporation): interferon 10, 100, 1000 U/ml, 24 hr, serum-free 0.1% BSA or 10% fetal bovine serum
Procedure: as §3, §4, §5

[11] = test system: endometrial stromal cells; assay: DNA synthesis in endometrial stromal cells; type: cell-based
Source text: Interferons blocked both bFGF and serum-stimulated DNA synthesis in these cells. […] The results also show the effects of increasing concentrations of interferon-alpha on serum stimulated DNA synthesis.
The results also show the effects of increasing concentrations of interferon-alpha (10, 100 and 1000 U/ml) on serum (2%) stimulated DNA synthesis.

[12] = bFGF 0.5-10 ng/ml with 100 U/ml interferon

Cc1ccc(=O)n(-c2ccccc2)c1 [pirfenidone, 5-methyl-1-phenyl-2-(1H)-pyridone]
cell proliferation (myometrial cells [1]): dose dependent inhibition | cell proliferation (leiomyoma cells [2]): dose dependent inhibition | lactate dehydrogenase (LDH) levels (myometrial cells [3]): No significant effects | cytotoxic effect on the cells (myometrial cells [3]; at the doses tested): no cytotoxic effect | percentage of dead cells (myometrial cells [3]; only at 1.0 mg/ml, p<0.05): significant increase | levels of RNA for collagen type I (leiomyoma cells [4]): reduced | levels of RNA for collagen type III (leiomyoma cells [4]): reduced | lactate dehydrogenase (LDH) levels (leiomyoma cells [5]): No significant effects | cytotoxic effect on the cells (leiomyoma cells [5]; at the doses tested): no cytotoxic effect | percentage of dead cells (leiomyoma cells [5]; only at 1.0 mg/ml, p<0.05): significant increase | levels of RNA for collagen type I (myometrial cells [6]): reduced | levels of RNA for collagen type III (myometrial cells [6]): reduced | fibroblast proliferation in vitro (human fibroblasts): inhibit fibroblast proliferation

Cc1ccc(C(=O)Nc2ccc(S(=O)(=O)O)c3cc(S(=O)(=O)O)cc(S(=O)(=O)O)c23)cc1NC(=O)c1cccc(NC(=O)Nc2cccc(C(=O)Nc3cc(C(=O)Nc4ccc(S(=O)(=O)O)c5cc(S(=O)(=O)O)cc(S(=O)(=O)O)c45)ccc3C)c2)c1 [suramin]
FGF induced proliferation [7]: very potent inhibitor | binding of FGF to specific cell surface receptors [8]: interfere with the ability of FGFs to bind

bFGF: basic fibroblast growth factor, angiogenic growth factor
proliferation of uterine stromal cells (cell number) (uterine stromal cells): stimulates the proliferation | effect of growth factor on DNA synthesis ([9]; bFGF 0.5-10 ng/ml): increase in DNA synthesis

heparin
smooth muscle cell proliferation (smooth muscle cell): very good inhibitors | binding of FGF to specific cell surface receptors [8]: inhibit FGF binding

interferon-α
bFGF induced DNA synthesis [10, 12]: inhibitory effect | basal and serum-stimulated DNA synthesis (tritiated thymidine incorporation) [10]: dose-dependent inhibition | basal and serum-stimulated DNA synthesis (tritiated thymidine incorporation) ([10]; listed as interferon alpha): tritiated thymidine incorporation decreases | serum-stimulated DNA synthesis ([11]; 2% serum, interferon 10, 100, 1000 U/ml): blocked | bFGF stimulated DNA synthesis ([11]; bFGF 0.1-5 ng/ml, 100 U/ml interferon): blocked | bFGF induced DNA synthesis [9, 12]: abolished the stimulating effect | basal and serum-stimulated DNA synthesis (tritiated thymidine incorporation) [9]: dose-dependent inhibition | basal and serum-stimulated DNA synthesis (tritiated thymidine incorporation) ([9]; listed as interferon alpha): tritiated thymidine incorporation decreases
